Experimental data: ChEMBL document CHEMBL1909046, “DrugMatrix in vitro pharmacology data”

Legend:
[1] = target: T1, Cholecystokinin receptor type A (Homo sapiens, UniProt P32238); type: cell membranes, Membrane; settings: 1321-n1; also: in other assays of this panel Not Active means under 50% inhibition at 10 µM
T1 sequence (P32238 whole entry): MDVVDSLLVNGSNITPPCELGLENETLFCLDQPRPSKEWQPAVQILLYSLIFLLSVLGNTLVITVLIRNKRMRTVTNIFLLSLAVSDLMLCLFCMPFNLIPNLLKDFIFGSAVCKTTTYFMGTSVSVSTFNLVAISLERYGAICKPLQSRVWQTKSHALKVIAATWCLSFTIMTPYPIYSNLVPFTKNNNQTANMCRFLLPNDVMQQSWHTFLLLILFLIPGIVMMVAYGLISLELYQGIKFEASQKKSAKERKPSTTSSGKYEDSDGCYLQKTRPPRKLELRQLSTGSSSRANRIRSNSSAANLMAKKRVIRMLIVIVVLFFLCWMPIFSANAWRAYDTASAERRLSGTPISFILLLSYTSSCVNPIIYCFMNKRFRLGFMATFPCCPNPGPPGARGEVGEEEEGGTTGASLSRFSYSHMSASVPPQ

[2] = target: Sodium-dependent dopamine transporter (Homo sapiens, UniProt Q01959); assay: DRUGMATRIX: Dopamine Transporter radioligand binding (ligand: [125I] RTI-55); type: cell membranes, CHO-K1, Membrane; settings: cho-k1; Not Active = under 50% inhibition at 10 µM
[3] = DRUGMATRIX: Glutamate, Kainate radioligand binding (ligand: [3H] Kainic acid); type: cell membranes, Rattus norvegicus, Wistar, Brain, Membrane; settings: Not Active = under 50% inhibition at 10 µM
[4] = DRUGMATRIX: Leukotriene, BLT (LTB4) radioligand binding (ligand: [3H]LTB4); type: cell membranes, Membrane; settings: u-937; Not Active = under 50% inhibition at 10 µM
[5] = target: Kappa-type opioid receptor (Homo sapiens, UniProt P41145); assay: DRUGMATRIX: Opiate kappa (OP2, KOP) radioligand binding (ligand: [3H] Diprenorphine); type: cell membranes, HEK293, Membrane; settings: hek293; Not Active = under 50% inhibition at 10 µM
Cathepsin G = target: T2, Cathepsin G (Homo sapiens, UniProt P08311); type: tissue-based; settings: neutrophil;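 also: inhibition of Cathepsin G enzyme activity, tested on an AMC-conjugated peptide substrate; in other assays of this panel Not Active means under 50% inhibition at 10 µM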
T2 sequence (P08311 whole entry): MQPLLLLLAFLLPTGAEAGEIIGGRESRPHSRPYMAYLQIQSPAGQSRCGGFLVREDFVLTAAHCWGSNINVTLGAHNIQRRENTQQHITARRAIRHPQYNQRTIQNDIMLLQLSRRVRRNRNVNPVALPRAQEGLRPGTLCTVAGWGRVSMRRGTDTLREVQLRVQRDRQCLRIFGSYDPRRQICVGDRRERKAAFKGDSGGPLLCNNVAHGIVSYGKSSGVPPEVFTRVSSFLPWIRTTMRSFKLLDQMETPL

[6] = target: Receptor tyrosine-protein kinase erbB-2 (Homo sapiens, UniProt P04626); assay: biochemical; type: cell-based, Insect cells; settings: insect cells;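 also: inhibition of HER2 kinase enzyme activity, measured with Poly(Glu:Tyr) as the phosphorylation substrate; in other assays of this panel Not Active means under 50% inhibition at 10 µM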
Glucocorticoid receptor = target: T3, Glucocorticoid receptor (Homo sapiens, UniProt P04150); settings: hela s3; also: in other assays of this panel Not Active means under 50% inhibition at 10 µM
T3 sequence (P04150 whole entry): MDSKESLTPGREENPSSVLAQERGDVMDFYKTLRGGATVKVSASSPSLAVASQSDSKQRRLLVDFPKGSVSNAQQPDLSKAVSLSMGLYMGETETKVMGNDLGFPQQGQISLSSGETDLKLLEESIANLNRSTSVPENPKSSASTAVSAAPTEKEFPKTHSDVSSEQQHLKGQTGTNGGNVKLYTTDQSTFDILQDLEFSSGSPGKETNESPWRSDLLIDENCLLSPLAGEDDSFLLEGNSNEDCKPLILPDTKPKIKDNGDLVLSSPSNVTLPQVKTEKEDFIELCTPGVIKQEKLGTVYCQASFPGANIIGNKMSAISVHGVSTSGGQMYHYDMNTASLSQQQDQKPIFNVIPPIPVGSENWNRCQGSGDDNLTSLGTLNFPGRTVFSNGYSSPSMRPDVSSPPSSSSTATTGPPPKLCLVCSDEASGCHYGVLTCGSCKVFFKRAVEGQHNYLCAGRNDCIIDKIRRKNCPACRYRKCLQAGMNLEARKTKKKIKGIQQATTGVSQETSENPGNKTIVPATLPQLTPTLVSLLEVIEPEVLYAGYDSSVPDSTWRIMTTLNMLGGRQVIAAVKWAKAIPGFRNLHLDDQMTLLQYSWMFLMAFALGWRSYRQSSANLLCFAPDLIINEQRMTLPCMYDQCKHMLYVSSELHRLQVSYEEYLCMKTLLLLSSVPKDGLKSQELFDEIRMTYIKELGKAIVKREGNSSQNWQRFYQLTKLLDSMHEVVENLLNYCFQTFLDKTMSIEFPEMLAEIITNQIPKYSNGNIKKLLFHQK

Chain of Receptor tyrosine-protein kinase erbB-2 (P04626 whole entry): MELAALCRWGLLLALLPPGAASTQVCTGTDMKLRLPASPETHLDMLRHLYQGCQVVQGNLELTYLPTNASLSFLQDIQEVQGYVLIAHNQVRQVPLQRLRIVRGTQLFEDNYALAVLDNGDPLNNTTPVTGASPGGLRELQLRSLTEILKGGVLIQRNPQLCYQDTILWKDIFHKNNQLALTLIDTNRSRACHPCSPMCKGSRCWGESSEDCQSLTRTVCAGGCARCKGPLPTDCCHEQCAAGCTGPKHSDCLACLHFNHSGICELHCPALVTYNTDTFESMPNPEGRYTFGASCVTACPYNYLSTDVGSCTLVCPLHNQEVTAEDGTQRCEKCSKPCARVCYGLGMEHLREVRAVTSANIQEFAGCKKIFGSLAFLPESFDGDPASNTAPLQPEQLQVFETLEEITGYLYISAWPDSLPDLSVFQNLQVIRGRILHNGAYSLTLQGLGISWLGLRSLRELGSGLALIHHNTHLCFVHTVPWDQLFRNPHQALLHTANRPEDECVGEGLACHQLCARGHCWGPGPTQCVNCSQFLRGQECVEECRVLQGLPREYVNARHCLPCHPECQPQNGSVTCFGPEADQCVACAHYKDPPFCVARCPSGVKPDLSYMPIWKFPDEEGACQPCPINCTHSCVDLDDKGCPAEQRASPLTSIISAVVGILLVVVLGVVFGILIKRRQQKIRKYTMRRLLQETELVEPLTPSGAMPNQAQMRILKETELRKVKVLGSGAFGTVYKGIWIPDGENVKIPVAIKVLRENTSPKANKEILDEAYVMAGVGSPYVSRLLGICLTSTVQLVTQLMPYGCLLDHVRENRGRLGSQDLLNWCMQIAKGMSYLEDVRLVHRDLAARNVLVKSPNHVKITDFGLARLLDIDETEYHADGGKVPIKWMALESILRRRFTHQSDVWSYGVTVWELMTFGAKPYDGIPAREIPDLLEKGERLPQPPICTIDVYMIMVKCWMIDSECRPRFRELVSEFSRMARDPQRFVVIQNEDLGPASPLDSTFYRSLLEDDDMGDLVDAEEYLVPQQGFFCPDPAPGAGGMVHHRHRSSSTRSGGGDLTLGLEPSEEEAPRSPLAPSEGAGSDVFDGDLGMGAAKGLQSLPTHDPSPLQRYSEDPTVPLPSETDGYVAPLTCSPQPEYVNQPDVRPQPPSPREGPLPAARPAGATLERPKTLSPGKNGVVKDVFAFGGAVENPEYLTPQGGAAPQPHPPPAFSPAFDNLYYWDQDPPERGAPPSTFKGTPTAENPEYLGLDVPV
Chain of Kappa-type opioid receptor (P41145 whole entry): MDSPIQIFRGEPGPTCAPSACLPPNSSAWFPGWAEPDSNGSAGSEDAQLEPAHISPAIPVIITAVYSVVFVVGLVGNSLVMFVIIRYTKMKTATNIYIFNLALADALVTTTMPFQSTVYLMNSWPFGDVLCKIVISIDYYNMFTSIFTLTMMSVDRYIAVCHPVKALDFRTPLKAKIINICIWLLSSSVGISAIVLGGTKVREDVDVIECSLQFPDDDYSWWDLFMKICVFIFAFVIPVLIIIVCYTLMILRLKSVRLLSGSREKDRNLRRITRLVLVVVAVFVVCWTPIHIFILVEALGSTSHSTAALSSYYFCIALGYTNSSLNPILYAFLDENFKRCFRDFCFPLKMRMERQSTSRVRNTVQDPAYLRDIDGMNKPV
Chain of Sodium-dependent dopamine transporter (Q01959 whole entry): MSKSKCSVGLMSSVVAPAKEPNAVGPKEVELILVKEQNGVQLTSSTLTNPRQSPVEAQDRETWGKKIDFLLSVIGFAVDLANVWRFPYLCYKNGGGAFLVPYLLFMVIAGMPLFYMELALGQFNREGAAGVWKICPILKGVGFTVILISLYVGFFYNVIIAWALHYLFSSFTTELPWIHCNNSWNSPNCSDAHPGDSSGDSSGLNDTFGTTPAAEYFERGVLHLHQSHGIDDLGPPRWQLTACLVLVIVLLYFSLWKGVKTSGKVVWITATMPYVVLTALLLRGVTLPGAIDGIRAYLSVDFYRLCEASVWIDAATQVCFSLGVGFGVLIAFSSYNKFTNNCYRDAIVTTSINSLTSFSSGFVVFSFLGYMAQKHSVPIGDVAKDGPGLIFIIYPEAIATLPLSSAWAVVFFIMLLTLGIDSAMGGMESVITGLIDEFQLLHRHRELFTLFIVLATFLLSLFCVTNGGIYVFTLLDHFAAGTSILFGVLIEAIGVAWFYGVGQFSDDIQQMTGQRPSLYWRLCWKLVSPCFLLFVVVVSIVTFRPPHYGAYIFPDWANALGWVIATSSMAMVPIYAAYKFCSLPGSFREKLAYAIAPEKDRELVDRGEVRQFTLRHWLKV

C[n+]1ccccc1/C=N/O.[Cl-] [PRALIDOXIME CHLORIDE]
Not Active: IC50 [1] | IC50 [2] | IC50 [3] | Ki [3] | IC50 [4] | Ki [4] | IC50 [5] | IC50 (Cathepsin G) | IC50 [6] | IC50 (Glucocorticoid receptor)

COc1cc2nc(N3CCN(C(=O)c4ccco4)CC3)nc(N)c2cc1OC [PRAZOSIN]
Not Active: IC50 [1] | IC50 [2] | IC50 [3] | Ki [3] | IC50 [4] | Ki [4] | IC50 [5] | IC50 (Cathepsin G) | IC50 [6] | IC50 (Glucocorticoid receptor)

CCCN(CCC)S(=O)(=O)c1ccc(C(=O)O)cc1 [PROBENECID]
Not Active: IC50 [1] | IC50 [2] | IC50 [3] | Ki [3] | IC50 [4] | Ki [4] | IC50 [5] | IC50 (Cathepsin G) | IC50 [6] | IC50 (Glucocorticoid receptor)

CCCOc1ccc(C(=O)OCCN(CC)CC)cc1N [PROPARACAINE]
Not Active: IC50 [1] | IC50 [2] | IC50 [3] | Ki [3] | IC50 [4] | Ki [4] | IC50 [5] | IC50 (Cathepsin G) | IC50 [6] | IC50 (Glucocorticoid receptor)

Oc1cccc(O)c1O [PYROGALLOL]
Not Active: IC50 [1] | IC50 [2] | IC50 [3] | Ki [3] | IC50 [4] | Ki [4] | IC50 [5] | IC50 (Cathepsin G) | IC50 [6] | IC50 (Glucocorticoid receptor)
